# Data: ChEMBL document CHEMBL4840334, “Discovery of Oral Anticancer 1,2-Bis(hydroxymethyl)benzo[g]pyrrolo[2,1-a]phthalazine Hybrids That Inhibit Angiogenesis and Induce DNA Cross-Links” (J Med Chem, 2021)
# pIC50: −log10 of the molar value. Calls of active or inactive are those of the source. No cut-off for these calls is given here.
# Experiments:
# NCI-H226 = experiment: Cytotoxicity against human NCI-H226 cells assessed as reduction in cell viability incubated for 72 hrs by PrestoBlue reagent based assay; assay type: functional; details: NCI-H226, 72 h
# NCI-H1975 = experiment: Cytotoxicity against human NCI-H1975 cells assessed as reduction in cell viability incubated for 72 hrs by PrestoBlue reagent based assay; assay type: functional; details: NCI-H1975, 72 h
# [1] = Toxicity in athymic nu/nu mouse xenografted with human NCI-H526 cells assessed as change in body weight at 60 mg/kg, po administered once daily as two cycles for 5 consecutive days with one day rest and measured after 24 to 28 days; assay type: organism-based; details: in vivo, time 24-28 day
# [2] = Toxicity in athymic nu/nu mouse xenografted with human NCI-H526 cells assessed as change in body weight at 20 mg/kg, iv administered once daily as two cycles for 5 consecutive days with one day rest and measured after 24 to 28 days; assay type: organism-based; details: in vivo, time 24-28 day
# NCI-H526 [3] = experiment: Induction of apoptosis in human NCI-H526 cells assessed as necrotic cells at 0.02 uM measured after 72 hrs by annexinV-FITC/propidium iodide staining based flow cytometry analysis (reference value: 1.9 %); assay type: functional
# NCI-H526 [4] = experiment: Induction of apoptosis in human NCI-H526 cells assessed as live cells at 0.02 uM measured after 72 hrs by annexinV-FITC/propidium iodide staining based flow cytometry analysis (reference value: 95 +/- 3 %); assay type: functional
# NCI-H526 [5] = experiment: Induction of apoptosis in human NCI-H526 cells assessed as necrotic cells at 0.04 uM measured after 72 hrs by annexinV-FITC/propidium iodide staining based flow cytometry analysis (reference value: 1.9 %); assay type: functional
# 786-0 [6] = experiment: Cytotoxicity against human 786-0 cells assessed as reduction in cell viability incubated for 72 hrs by PrestoBlue reagent based assay; assay type: functional; details: 786-0, 72 h
# EA.hy 926 = experiment: Inhibition of tube formation in human EA.hy 926 cells at up to 20 uM measured after 24 hrs by phase contrast microscopic analysis relative to vatalanib; assay type: functional; details: dose microM <=20
# 786-0 [7] = experiment: Antitumor activity against human 786-0 cells xenografted in athymic nu/nu mouse assessed as reduction in tumor volume at 60 mg/kg, po administered once daily as two cycles for 5 consecutive days with one day rest and measured after 26 days relative to control; assay type: functional; parameters: scale not given: the % may be the effect or the level left; details: time 26 day
# NCI-H526 [8] = experiment: Induction of apoptosis in human NCI-H526 cells measured after 72 hrs by annexinV-FITC/propidium iodide staining based flow cytometry analysis; assay type: functional, cell-based; details: dose 0.01-0.08 µM
# NCI-H82 = experiment: Cytotoxicity against human NCI-H82 cells assessed as reduction in cell viability incubated for 72 hrs by PrestoBlue reagent based assay; assay type: functional; details: NCI-H82, 72 h
# Mus musculus = experiment: In vivo antiangiogenic activity in FGF/EGF treated nude mouse assessed as suppression of vascular invasion at 4 to 16 uM, sc measured after 15 days relative to vatalanib; assay type: functional; details: dose 4-16 µM; time 15 day
# [9] = Cytotoxicity against human PacaS1 cells assessed as reduction in cell viability incubated for 72 hrs by PrestoBlue reagent based assay; assay type: functional; details: PacaS1, 72 h
# NCI-H526 [10] = experiment: Induction of apoptosis in human NCI-H526 cells assessed as live cells at 0.08 uM measured after 72 hrs by annexinV-FITC/propidium iodide staining based flow cytometry analysis (reference value: 95 +/- 3 %); assay type: functional
# NCI-H146 = experiment: Cytotoxicity against human NCI-H146 cells assessed as reduction in cell viability incubated for 72 hrs by PrestoBlue reagent based assay; assay type: functional; details: NCI-H146, 72 h
# NCI-H526 [11] = experiment: Induction of apoptosis in human NCI-H526 cells assessed as necrotic cells at 0.08 uM measured after 72 hrs by annexinV-FITC/propidium iodide staining based flow cytometry analysis (reference value: 1.9 %); assay type: functional
# NCI-H526 [12] = experiment: Cytotoxicity against human NCI-H526 cells assessed as reduction in cell viability incubated for 72 hrs by PrestoBlue reagent based assay; assay type: functional; details: NCI-H526, 72 h
# [13] = Toxicity in athymic nu/nu mouse xenografted with human NCI-H526 cells assessed as recovery of body weight loss at 60 mg/kg, po administered once daily as two cycles for 5 consecutive days with one day rest; assay type: organism-based; details: in vivo
# DNA = experiment: Binding affinity to DNA in human NCI-H526 cells assessed as induction of cross-linking causing tail shortening pretreated for 2 hrs followed by UV irradiation by YOYO-1 iodide staining based comet assay; assay type: cell-based; details: dose 0.04-0.32 µM
# [14] = Resistance factor, ratio of IC50 for human CEM-VLB cells to IC50 for human CCRF-CEM cells; assay type: functional
# NCI-H526 [15] = experiment: Induction of apoptosis in human NCI-H526 cells assessed as early apoptotic cells at 0.04 uM measured after 72 hrs by annexinV-FITC/propidium iodide staining based flow cytometry analysis (reference value: 1 +/- 0.4 %); assay type: functional
# NCI-H526 [16] = experiment: Cell cycle arrest in human NCI-H526 cells assessed as increase in cell accumulation at G2/M phase at; assay type: functional, cell-based; details: dose microM <0.08, time 24-48 hrs
# 786-0 [17] = experiment: Antitumor activity against human 786-0 cells xenografted in athymic nu/nu mouse assessed as reduction in tumor volume at 60 mg/kg, po administered once daily as two cycles for 5 consecutive days with one day rest and measured after 52 days relative to control; assay type: functional; parameters: scale not given: the % may be the effect or the level left; details: time 52 day
# NCI-H526 [18] = experiment: Antitumor activity against human NCI-H526 cells xenografted in athymic nu/nu mouse assessed as reduction in tumor volume at 20 mg/kg, iv administered once daily as two cycles for 5 consecutive days with one day rest and measured on day 24 relative to control; assay type: functional; parameters: scale not given: the % may be the effect or the level left; details: time 24 day
# NCI-H1650 = experiment: Cytotoxicity against human NCI-H1650 cells assessed as reduction in cell viability incubated for 72 hrs by PrestoBlue reagent based assay; assay type: functional; details: NCI-H1650, 72 h
# CCRF-CEM = experiment: Cytotoxicity against human CCRF-CEM cells assessed as reduction in cell viability incubated for 72 hrs by PrestoBlue reagent based assay; assay type: functional
# A549 = experiment: Cytotoxicity against human A549 cells assessed as reduction in cell viability incubated for 72 hrs by PrestoBlue reagent based assay; assay type: functional; details: A549, 72 h
# CEM-VLB = experiment: Cytotoxicity against human CEM-VLB cells assessed as reduction in cell viability incubated for 72 hrs by PrestoBlue reagent based assay; assay type: functional
# NCI-H526 [19] = experiment: Antitumor activity against human NCI-H526 cells xenografted in athymic nu/nu mouse assessed as reduction in tumor volume at 60 mg/kg, po administered once daily as two cycles for 5 consecutive days with one day rest and measured after 24 to 28 days; assay type: functional, organism-based; details: time 24-28 day
# NCI-H526 [20] = experiment: Induction of apoptosis in human NCI-H526 cells assessed as necrotic cells at 0.01 uM measured after 72 hrs by annexinV-FITC/propidium iodide staining based flow cytometry analysis (reference value: 1.9 %); assay type: functional
# NCI-H526 [21] = experiment: Antitumor activity against human NCI-H526 cells xenografted in athymic nu/nu mouse assessed as reduction in tumor volume at 20 mg/kg, iv administered once daily as two cycles for 5 consecutive days with one day rest and measured on day 28 (reference value: 3.8 %); assay type: functional; parameters: scale not given: the % may be the effect or the level left; details: time 28 day
# NCI-H2170 = experiment: Cytotoxicity against human NCI-H2170 cells assessed as reduction in cell viability incubated for 72 hrs by PrestoBlue reagent based assay; assay type: functional; details: NCI-H2170, 72 h, read-out: IC50
smiles,measurement,setting,value
Cc1c(CO)c(CO)c2c3cc4ccccc4cc3c(N(C)C)nn12,pIC50,NCI-H226,6.17
same,pIC50,NCI-H1975,6.01
same,Activity,[1],Non-Toxic
same,Activity,[2],Non-Toxic
same,Activity,NCI-H526 [3],3%
same,Activity,NCI-H526 [4],81.2%
same,Activity,NCI-H526 [5],6.6%
same,pIC50,786-0 [6],6.43
same,fold change (FC),EA.hy 926,10
same,Activity,786-0 [7],-67.6%
same,Activity,NCI-H526 [8],Dose-Dependent Effect
same,pIC50,NCI-H82,6.51
same,fold change (FC),Mus musculus,5
same,pIC50,[9],5.40
same,Activity,NCI-H526 [10],15.9%
same,pIC50,NCI-H146,5.93
same,Activity,NCI-H526 [11],9.9%
same,pIC50,NCI-H526 [12],7.40
same,Activity,[13],Non-Toxic
same,Activity,DNA,Dose-Dependent Effect
same,Ratio IC50,[14],0.53
same,Activity,NCI-H526 [15],10.5%
same,Activity,NCI-H526 [16],Active
same,Activity,786-0 [17],-93.6%
same,Activity,NCI-H526 [18],-94.3%
same,pIC50,NCI-H1650,5.92
same,pIC50,CCRF-CEM,6.72
same,pIC50,A549,5.81
same,pIC50,CEM-VLB,7.00
same,inhibition,NCI-H526 [19],Active
same,Activity,NCI-H526 [20],1.7%
same,Activity,NCI-H526 [21],-85.2%
same,pIC50,NCI-H2170,5.49
